Holding throughout (type): cell-based
Assay [1] relates to polio virus Sabin 1. The assay can be described thus: organism not typed. The settings on record: read-out: inhibition capacity (IC50) Polio 1.
The subject of assay [2] is coxsackie B 4 virus. The assay can be described thus: Antiviral CPE assay in mammalian cell culture. The conditions noted are these: Enterovirus B, B4, read-out: inhibition capacity (IC50) B4.
In assay [3] the test system is Enterovirus 71. The assay can be described thus: Antiviral CPE assay in mammalian cell culture. The settings on record: Enterovirus A, EV71, prevention of viral CPE, read-out: inhibition capacity (IC50) EV71.
Assay [4] concerns coxsackie B1 virus. The experiment in a line: Antiviral CPE assay in mammalian cell culture. The conditions noted are these: read-out: inhibition capacity (IC50) Bl.
The test system of assay [5] is Enterovirus 68. The experiment in a line: Antiviral CPE assay in mammalian cell culture. The settings on record: Enterovirus D, EV68, read-out: inhibition capacity (IC50) EV68.
The subject of assay [6] is coxsackie B2 virus. The experiment in a line: Antiviral CPE assay in mammalian cell culture. The settings on record: read-out: inhibition capacity (IC50) B2.
The subject of assay [7] is Enterovirus 30. The experiment in a line: Antiviral CPE assay in mammalian cell culture. The conditions noted are these: Enterovirus, read-out: inhibition capacity (IC50) EV30.
Assay [8] deals with coxsackie B3 virus. The experiment in a line: Antiviral CPE assay in mammalian cell culture. The settings on record: Enterovirus B, B3, read-out: inhibition capacity (IC50) B3.
For assay [9], the system named is coxsackie B5virus. The experiment in a line: Antiviral CPE assay in mammalian cell culture. The conditions noted are these: read-out: inhibition capacity (IC50) B5.
The subject of assay [10] is Enterovirus 6. The assay can be described thus: Antiviral CPE assay in mammalian cell culture. The settings on record: prevention of viral CPE, read-out: inhibition capacity (IC50) EV6.

pIC50: −log10 of the molar value.

The pIC50 is the IC50 on a negative log10 scale, so that one unit is a factor of ten. Regarding `COc1ccc(CNc2nc(C)nc3c(-c4ccc(OC)c(OC)c4)c(C)nn23)cn1` [Example 13, 8-(3,4-dimethoxyphenyl)-N-[(6-methoxy-3-pyridyl)methyl]-2,7-dimethyl-pyrazolo[1,5-a][1,3,5]triazin-4-amine], the pIC50 is > 8.00 in [1]; > 7.00 in [2]; > 7.00 in assay [3]; > 8.00 in [4]; > 7.00 in assay [5]; > 7.00 in [6]. The figures for the pIC50 in [7], in assay [8] and in assay [9] were > 8.00, > 7.00 and > 7.00, respectively.
On to `COc1ccc(-c2c(C)nn3c(NCc4cc[n+]([O-])cc4)nc(C)nc23)cc1OC` [Example 12, 8-(3,4-dimethoxyphenyl)-2,7-dimethyl-N-[(1-oxidopyridin-1-ium-4-yl)methyl]pyrazolo[1,5-a][1,3,5]triazin-4-amine], for which the pIC50 in assay [1], in assay [2], in [3], in [4], in assay [5] and in assay [6] was > 6.00 each time. In addition, the pIC50 in assay [7], in assay [8] and in [9] was > 6.00 throughout.
Consider `COc1ccc(-c2c(C)nn3c(NCc4cnco4)nc(C)nc23)cc1OC` [Example 28, 8-(3,4-dimethoxyphenyl)-2,7-dimethyl-N-[(1,3-oxazol-5-yl)methyl]pyrazolo[1,5-a][1,3,5]triazin-4-amine], for which the pIC50 in [1] is > 7.00; in assay [10], > 7.00; in assay [2] it was > 7.00; in assay [3], > 7.00; in [4], > 7.00; in assay [5], > 8.00. Moreover, the pIC50 in assay [6] is > 7.00; in assay [7], < 6.00; in [8], > 7.00; in [9] it was > 6.00.
With `COc1ccc(-c2c(C)nn3c(NCC4CCCCC4)nc(C)nc23)cc1OC` [Example 15, N-(cyclohexylmethyl)-8-(3,4-dimethoxyphenyl)-2,7-dimethyl-pyrazolo[1,5-a][1,3,5]triazin-4-amine], the pIC50 in assay [1], in assay [10], in assay [2], in [3], in assay [4] and in [5] was > 6.00 each time. The pIC50 in assay [6], in [7], in [8] and in [9] was > 6.00 each time.
Regarding `COc1ccc(-c2c(C)nn3c(NCc4ccc(C(C)C)cc4)nc(C)nc23)cc1OC` [Example 4, 8-(3,4-dimethoxyphenyl)-N-[(4-isopropylphenyl)methyl]-2,7-dimethyl-pyrazolo[1,5-a][1,3,5]triazin-4-amine], the pIC50 in [1], in assay [10], in assay [2], in assay [3], in assay [4] and in [5] was > 6.00 throughout. In addition, the pIC50 in [6], in assay [7], in assay [8] and in assay [9] was > 6.00 each time.
For `COc1ccc(-c2c(C)nn3c(NCc4cccs4)nc(C)nc23)cc1OC` [Example 21, 8-(3,4-dimethoxyphenyl)-2,7-dimethyl-N-(2-thienylmethyl)pyrazolo[1,5-a][1,3,5]triazin-4-amine], the pIC50 in assay [1] is > 7.00; in [10], > 7.00; in assay [2] it was > 7.00; in assay [3], > 7.00; in assay [4], > 8.00; in assay [5] it was > 7.00. Also, the pIC50 in assay [6] was > 8.00; in [7] it was > 7.00; in [8], > 7.00; in assay [9], > 7.00.
In the case of `COc1ccc(-c2c(C)nn3c(NCc4cccc(S(C)(=O)=O)c4)nc(C)nc23)cc1OC` [Example 11, 8-(3,4-dimethoxyphenyl)-2,7-dimethyl-N-[(3-methylsulfonylphenyl)methyl]pyrazolo[1,5-a][1,3,5]triazin-4-amine], the pIC50 in assay [1] is > 8.00; in assay [10], > 7.00; in [2], > 8.00; in assay [3], > 7.00; in assay [4] it was > 8.00; in assay [5], > 7.00. The pIC50 in assay [6], in assay [7], in assay [8] and in [9] was > 8.00 each time.
As for `COc1ccc(-c2c(C)nn3c(NCc4ccn(C)n4)nc(C)nc23)cc1OC` [Example 27, 8-(3,4-dimethoxyphenyl)-2,7-dimethyl-N-[(1-methyl-1H-pyrazol-3-yl)methyl]pyrazolo[1,5-a][1,3,5]triazin-4-amine], the pIC50 was > 8.00 in [1]; > 6.00 in assay [10]; > 8.00 in assay [2]; > 7.00 in [3]; > 8.00 in assay [4]; > 8.00 in assay [5]. Further, the pIC50 in assay [6] was > 8.00; in assay [7] it was > 7.00; in [8] it was > 7.00; in [9], > 7.00.
Regarding `COc1ccc(-c2c(C)nn3c(NCc4ccccc4)nc(C)nc23)cc1OC` [Example 20, N-benzyl-8-(3,4-dimethoxyphenyl)-2,7-dimethyl-pyrazolo[1,5-a][1,3,5]triazin-4-amine], the negative-log IC50 (pIC50) in [1] was > 7.00; in assay [10] it was > 7.00; in assay [2], > 8.00; in assay [3] it was > 7.00; in assay [4] it was > 7.00; in assay [5], > 7.00. Besides, the pIC50 in assay [6], in assay [7], in [8] and in assay [9] was > 7.00 throughout.
Turning to `COc1ccc(-c2c(C)nn3c(NCc4ccc(Cl)cc4)nc(C)nc23)cc1OC` [Example 8, N-[(4-chlorophenyl)methyl]-8-(3,4-dimethoxyphenyl)-2,7-dimethyl-pyrazolo[1,5-a][1,3,5]triazin-4-amine], the pIC50 in [1] was > 7.00; in assay [10], > 6.00; in [2] it was > 7.00; in assay [3], > 6.00; in [4], > 7.00; in [5], > 7.00. Moreover, the pIC50 was > 7.00 in assay [6], > 7.00 in [7], > 7.00 in assay [8] and > 6.00 in assay [9].
Turning to `COc1ccc(-c2c(C)nn3c(NCc4ccc(NC(C)=O)cc4)nc(C)nc23)cc1OC` [Example 9, N-[4-[[[8-(3,4-dimethoxyphenyl)-2,7-dimethyl-pyrazolo[1,5-a][1,3,5]triazin-4-yl]amino]methyl]phenyl]acetamide], the pIC50 is > 8.00 in [1]; > 7.00 in assay [10]; > 7.00 in assay [2]; > 7.00 in assay [3]; > 6.00 in [4]; > 7.00 in assay [5]. The pIC50 in [6], in [7], in assay [8] and in assay [9] was > 7.00 in each case.
Turning to `CCC(=O)NS(=O)(=O)c1ccc(CNc2nc(C)nc3c(-c4ccc(OC)c(OC)c4)c(C)nn23)cc1` [Example 25, N-[4-[[[8-(3,4-dimethoxyphenyl)-2,7-dimethyl-pyrazolo[1,5-a][1,3,5]triazin-4-yl]amino]methyl]phenyl]sulfonylpropanamide], the negative logarithm of the IC50 (pIC50) in assay [1] was < 6.00; in assay [10], < 6.00; in assay [2] it was < 6.00; in assay [3] it was < 6.00; in assay [4] it was < 6.00; in assay [5], > 6.00. In addition, the pIC50 in [6], in assay [7], in assay [8] and in [9] was < 6.00 throughout.
For `COc1ccc(-c2c(C)nn3c(NCc4cccnc4)nc(C)nc23)cc1OC` [Example 22, 8-(3,4-dimethoxyphenyl)-2,7-dimethyl-N-(3-pyridylmethyl)pyrazolo[1,5-a][1,3,5]triazin-4-amine], the pIC50 in [1], in [10], in assay [2], in assay [3], in assay [4] and in assay [5] was > 7.00 each time. The pIC50 in assay [6], in assay [7], in [8] and in assay [9] was > 7.00 in each case.
Turning to `COc1ccc(-c2c(C)nn3c(NCc4ccccn4)nc(C)nc23)cc1OC` [Example 5, 8-(3,4-dimethoxyphenyl)-2,7-dimethyl-N-(2-pyridylmethyl)pyrazolo[1,5-a][1,3,5]triazin-4-amine], the pIC50 in assay [1] is > 7.00; in assay [10], > 6.00; in [2], > 6.00; in assay [3] it was > 6.00; in assay [4], > 7.00; in assay [5], > 6.00. Moreover, the pIC50 in assay [6] was > 7.00; in [7], > 6.00; in assay [8], > 6.00; in assay [9] it was > 6.00.
On to `COc1ccc(-c2c(C)nn3c(NCc4ccc(F)cc4)nc(C)nc23)cc1OC` [Example 1, 8-(3,4-dimethoxyphenyl)-N-[(4-fluorophenyl)methyl]-2,7-dimethyl-pyrazolo[1,5-a][1,3,5]triazin-4-amine], for which the pIC50 in assay [1] was > 8.00; in [10], > 6.00; in assay [3] it was > 8.00; in assay [4], > 7.00; in assay [6], > 8.00; in assay [7], > 7.00. The pIC50 in assay [8] was > 6.00; in [9], > 7.00.
